The test system of this experiment is BDF1 mice, P388 leukemia ip, median survival T/C. The experiment in a line: NCI In Vivo Anticancer Drug Screen. Data for tumor model P388 Leukemia (intraperitoneal) in B6D2F1 (BDF1) mice. As to conditions: endpoint: median survival time, higher = longer survival. The procedure, abridged: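 T/C = treated-group survival ÷ vehicle-control survival; tumour transplanted into mice before dosing.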

Where [1] appears, read: dose: 3.0 mg/kg/injection, schedule: Q01DX009 (ip), vehicle: saline with Tween-80.
[2] abbreviates: dose: 50.0 mg/kg/injection, schedule: Q01DX005 (ip), vehicle: saline with Tween-80.
[3] abbreviates: dose: 100.0 mg/kg/injection, schedule: Q01DX005 (ip), vehicle: saline with Tween-80.
[4] abbreviates: dose: 200.0 mg/kg/injection, schedule: Q01DX005 (ip), vehicle: saline with Tween-80.

“And” between values parts separate entries of the source, which are not always exact repeats. Identical values can stand only once. Inconclusive results and toxic doses are left out.

For `CN=C(N)c1ccc(N=C(N)c2ccc(N=C(N)c3ccc(NC(=O)Nc4cccc(NC(=O)Nc5ccc(C(N)=Nc6ccc(C(N)=Nc7ccc(C(N)=NC)cc7)cc6)cc5)c4)cc3)cc2)cc1`, the T/C is 119 % of control (dose: 0.8 mg/kg/injection, schedule: Q01DX009 (ip), vehicle: saline with Tween-80); 162 % of control under setting [1]; 150 % of control (dose: 4.5 mg/kg/injection, schedule: Q04DX003 (ip), vehicle: saline with Tween-80); 175 % of control and 195 % of control (dose: 5.0 mg/kg/injection, schedule: Q01DX009 (ip), vehicle: saline with Tween-80); 150 % of control (dose: 7.0 mg/kg/injection, schedule: Q04DX003 (ip), vehicle: saline with Tween-80); 212 % of control (dose: 8.0 mg/kg/injection, schedule: Q01DX009 (ip), vehicle: saline with Tween-80). The T/C reads like this: (dose: 11.0 mg/kg/injection, schedule: Q04DX003 (ip), vehicle: saline with Tween-80) 154 % of control; (dose: 12.0 mg/kg/injection, schedule: Q01DX009 (ip), vehicle: saline with Tween-80) 168 % of control and 170 % of control; (dose: 17.0 mg/kg/injection, schedule: Q04DX003 (ip), vehicle: saline with Tween-80) 170 % of control and 179 % of control; (dose: 18.0 mg/kg/injection, schedule: Q01DX009 (ip), vehicle: saline with Tween-80) 240 % of control and 192 % of control; (dose: 25.0 mg/kg/injection, schedule: Q04DX003 (ip), vehicle: saline with Tween-80) 200 % of control; (dose: 27.0 mg/kg/injection, schedule: Q01DX009 (ip), vehicle: saline with Tween-80) 200 % of control. In addition, the T/C by setting is: (dose: 37.0 mg/kg/injection, schedule: Q01DX009 (ip), vehicle: saline with Tween-80) 100 % of control; (dose: 37.0 mg/kg/injection, schedule: Q04DX003 (ip), vehicle: saline with Tween-80) 166 % of control and 191 % of control; (dose: 37.5 mg/kg/injection, schedule: Q04DX003 (ip), vehicle: saline with Tween-80) 181 % of control; (dose: 55.0 mg/kg/injection, schedule: Q04DX003 (ip), vehicle: saline with Tween-80) 158 % of control and 195 % of control.

On to `COc1cc(Cc2nccc3cc(OC)c(OC)cc23)c(C(C)=O)cc1OC`, for which the T/C (dose: 8.0 mg/kg/injection, schedule: Q01DX009 (ip), vehicle: saline) was 153 % of control; the T/C (dose: 8.2 mg/kg/injection, schedule: Q01DX009 (ip), vehicle: saline sonified) was 150 % of control; the T/C (dose: 12.5 mg/kg/injection, schedule: Q01DX009 (ip), vehicle: saline sonified) was 155 % of control; the T/C (dose: 18.75 mg/kg/injection, schedule: Q01DX009 (ip), vehicle: saline sonified) was 195 % of control.

On to `CC(=O)NC(CCCCNC(=O)OCc1ccccc1)C(=O)O` (stereo not given), for which the T/C was 90 % of control under setting [2], 93 % of control under setting [3] and 89 % of control under setting [4].

`ClCCOCCOc1ccc(C2CCCCC2)cc1`: the T/C is 100 % of control (dose: 100.0 mg/kg/injection, schedule: Q04DX003 (ip), vehicle: saline); 100 % of control (dose: 200.0 mg/kg/injection, schedule: Q04DX003 (ip), vehicle: saline); 100 % of control (dose: 400.0 mg/kg/injection, schedule: Q04DX003 (ip), vehicle: saline).

For `Oc1ccccc1C=NCCN1CC1.Oc1ccccc1C=NCCN1CC1.[Ni+2]`, the T/C (dose: 6.25 mg/kg/injection, schedule: Q01DX009 (ip), vehicle: Klucel (hydroxypropylcellulose) (HPC)) was 101 % of control; the T/C (dose: 12.5 mg/kg/injection, schedule: Q01DX009 (ip), vehicle: Klucel (hydroxypropylcellulose) (HPC)) was 101 % of control; the T/C (dose: 12.5 mg/kg/injection, schedule: Q04DX003 (ip), vehicle: Klucel (hydroxypropylcellulose) (HPC)) is 98 % of control; the T/C (dose: 25.0 mg/kg/injection, schedule: Q04DX003 (ip), vehicle: saline sonified) is 115 % of control; the T/C (dose: 50.0 mg/kg/injection, schedule: Q04DX003 (ip), vehicle: Klucel (hydroxypropylcellulose) (HPC)) is 122 % of control.

As to `Cc1ccc2c(C)c3c(ccc4ccccc43)c[n+]2c1`, the T/C was 115 % of control (dose: 1.25 mg/kg/injection, schedule: Q01DX009 (ip), vehicle: Klucel (hydroxypropylcellulose) (HPC)); 115 % of control (dose: 1.25 mg/kg/injection, schedule: Q01DX009 (ip), vehicle: saline); 120 % of control (dose: 2.5 mg/kg/injection, schedule: Q01DX009 (ip), vehicle: Klucel (hydroxypropylcellulose) (HPC)); 100 % of control (dose: 2.5 mg/kg/injection, schedule: Q01DX009 (ip), vehicle: saline); 100 % of control (dose: 2.5 mg/kg/injection, schedule: Q04DX003 (ip), vehicle: saline); 104 % of control (dose: 5.0 mg/kg/injection, schedule: Q04DX003 (ip), vehicle: saline). Moreover, the T/C was 90 % of control (dose: 10.0 mg/kg/injection, schedule: Q01DX009 (ip), vehicle: saline); 116 % of control (dose: 10.0 mg/kg/injection, schedule: Q04DX003 (ip), vehicle: saline); 120 % of control (dose: 20.0 mg/kg/injection, schedule: Q04DX003 (ip), vehicle: saline).

For the compound `C(=N\n1cnnc1)/c1ccc(/C=N/n2cnnc2)cc1`, the T/C was 118 % of control (dose: 100.0 mg/kg/injection, schedule: Q01DX001 (ip), vehicle: saline); 104 % of control (dose: 200.0 mg/kg/injection, schedule: Q01DX001 (ip), vehicle: saline); 95 % of control (dose: 400.0 mg/kg/injection, schedule: Q01DX001 (ip), vehicle: saline).

In the case of `COc1cccc(CCC(=O)O)c1OC`, the T/C is 109 % of control (dose: 25.0 mg/kg/injection, schedule: Q04DX003 (ip), vehicle: water); 101 % of control (dose: 50.0 mg/kg/injection, schedule: Q04DX003 (ip), vehicle: water); 111 % of control (dose: 100.0 mg/kg/injection, schedule: Q04DX003 (ip), vehicle: water); 103 % of control (dose: 200.0 mg/kg/injection, schedule: Q04DX003 (ip), vehicle: water); 94 % of control (dose: 400.0 mg/kg/injection, schedule: Q04DX003 (ip), vehicle: water).

For `CCOC(=O)C[P+](c1ccccc1)(c1ccccc1)c1ccccc1`, the T/C is, setting by setting: (dose: 12.5 mg/kg/injection, schedule: Q04DX003 (ip), vehicle: saline) 102 % of control; (dose: 25.0 mg/kg/injection, schedule: Q04DX003 (ip), vehicle: saline) 102 % of control; (dose: 50.0 mg/kg/injection, schedule: Q04DX003 (ip), vehicle: saline) 96 % of control.

As to `O=C1C(=O)c2ccccc2-c2ccccc21.O=C1C(=O)c2ccccc2-c2ccccc21.[Hg]`, the T/C is 110 % of control (dose: 1.5 mg/kg/injection, schedule: Q01DX009 (ip), vehicle: saline with Tween-80); 100 % of control (dose: 2.6 mg/kg/injection, schedule: Q01DX009 (ip), vehicle: saline with Tween-80); 112 % of control under setting [1]; 110 % of control (dose: 4.0 mg/kg/injection, schedule: Q01DX009 (ip), vehicle: saline with Tween-80); 116 % of control (dose: 6.0 mg/kg/injection, schedule: Q01DX009 (ip), vehicle: saline with Tween-80); 110 % of control (dose: 9.0 mg/kg/injection, schedule: Q01DX009 (ip), vehicle: saline with Tween-80).

Regarding `[Se]c1nccn2cnnc12`, the T/C reads like this: (dose: 6.25 mg/kg/injection, schedule: Q01DX001 (ip), vehicle: saline with Tween-80) 122 % of control; (dose: 12.5 mg/kg/injection, schedule: Q01DX001 (ip), vehicle: saline with Tween-80) 105 % of control; (dose: 25.0 mg/kg/injection, schedule: Q01DX001 (ip), vehicle: saline with Tween-80) 103 % of control.

Regarding `CCOC(=O)CCN(CC1CC=CCC1)c1cc(O)c2c(c1O)C(=O)c1ccccc1C2=O` (stereo not given), the T/C runs as follows: under setting [2], 94 % of control; under setting [3], 89 % of control; under setting [4], 90 % of control.

Take `COC(=O)c1cc(-c2ccccc2)[nH]c1-c1ccccc1`: under “dose: 50.0 mg/kg/injection, schedule: Q01DX009 (ip), vehicle: saline”, the T/C is 92 % of control.

As for `C[NH-].C[NH-].[I][Pt+2][I]`, the T/C was 120 % of control (dose: 1.56 mg/kg/injection, schedule: Q04DX003 (ip), vehicle: other); 120 % of control (dose: 3.12 mg/kg/injection, schedule: Q04DX003 (ip), vehicle: other); 163 % of control (dose: 6.25 mg/kg/injection, schedule: Q04DX003 (ip), vehicle: other); 163 % of control (dose: 12.5 mg/kg/injection, schedule: Q04DX003 (ip), vehicle: other); 154 % of control (dose: 50.0 mg/kg/injection, schedule: Q04DX003 (ip), vehicle: other); 116 % of control (dose: 100.0 mg/kg/injection, schedule: Q04DX003 (ip), vehicle: other).
